Data published in patent publication US11891634B2, “PDE5A destabilizing domains” (The Board of Trustees of the Leland Stanford Junior …, priority 2017, dated 2024).

Key:
[1] = test system: NIH3T3 cells expressing AcGFP-PDE5A fusions; assay: FACS analysis of C-terminal PDE5A mutants (AcGFP-PDE5A fusions), Sildenafil vs vehicle; format: cell-based, mouse; conditions: for Mean Fluorescence intensity: NIH3T3; for Stabilization ratio: Sildenafil 10 μM vs vehicle alone; for basal expression in the absence of ligand (in words): extended PDE5A variants, NIH3T3, no Sildenafil
Procedure: (§1) The NIH3T3 cell line was cultured in DMEM supplemented with 10% heat-inactivated donor bovine serum (Invitrogen), 2 mM glutamine, 100 U/ml penicillin and 100 μg/ml streptomycin.
(§2) The ΦNX ecotropic packaging cell line was transfected using standard Lipofectamine 2000 protocols. Viral supernatants were harvested 48 hours, post transfection, filtered and concentrated 10-fold using Amicon Ultra centrifugal filter device with a 100kDa cutoff. NIH 3T3 cells were incubated with concentrated retroviral supernatants supplemented with 4 μg/ml polybrene for 4 hours at 37° C. Cells were washed once with PBS and cultured in growth media for 24-36 hours to allow for viral integration.
(§3) The transduced NIH3T3 cells were subjected to analysis using fluorescence-activated cell sorting (FACS) to screen the libraries of PDE5A mutants. 24 hours prior to analysis, transduced NIH3T3 cells were plated at 1×10^5 cells per well of a 12-well plate. Cells were removed from the plate using PBS and 2 mM EDTA, washed once with PBS, and resuspended in 200 μL, PBS. FACS analysis was performed on instruments at the Stanford Shared FACS Facility with 10,000 events represented.
(§4) To identify destabilizing domains that are responsive to the PDE5A ligand, Sildenafil, a cell-based screening assay was employed in which the fluorescence of green fluorescent protein derived from Aequorea coerulescens (AcGFP) served as an indicator of PDE5A stability. A library based on the PDE5A catalytic domain sequences was generated using error prone PCR and then cloned in-frame in front of AcGFP. A Moloney murine leukemia retroviral expression was used to stably integrate this library of PDE5A-AcGFP fusions into NIH-3T3 fibroblasts, and the transduced cells were subjected to three rounds of sorting using flow cytometry. In the first round, cells were treated with 10 μM of PDE5A ligand, Sildenafil for 16-24 before analysis. Fluorescent cells were collected and further cultured in the absence of ligand for 60 hours.
(§5) A library of AcGFP-PDE5A fusions i.e., C-terminal PDE5A mutants was screened using the cell-based screening assay described previously to identify C-terminal destabilizing domains. […] Identified candidates were subjected to further characterization by FACS. Cells were split into two treatment groups and incubated with either Sildenafil (10 μM) or vehicle alone for 24 hours. Cells that were mock transduced or transduced with the wild-type PDE5A construct were also included in the analysis. The stabilization ratio was calculated as the fold change in GFP intensity of the AcGFP-PDE5A construct in Sildenafil treated sample compared to vehicle alone treated sample. The results are presented in Table 2 where the C terminal PDE5A mutants are denoted as PDE5AC.
Residue D764 was identified as a mutational hotspot from sequence analysis. PDE5AC (#41) was engineered with either D764N or D764G mutation via site-directed mutagenesis. PDE5AC (#41) +D764N comprises the amino acid sequence of SEQ ID NO. 53 (encoded by SEQ ID NO. 54) and PDE5AC (#41) +D764G comprises the amino acid sequence of SEQ ID NO. 55 (encoded by SEQ ID NO. 56). AcGFP-PDE5A variants were evaluated for Sildenafil dependent stabilization via FACS as described previously. Results from FACS analysis are presented in Table 4 where the C terminal PDE5A mutants are denoted as PDE5AC. The stabilization ratio was calculated as the fold change in GFP intensity of the AcGFP-PDE5A construct in Sildenafil treated sample compared to vehicle alone treated sample.
Extended versions of human PDE5A that included residues in addition to catalytic domain (residues 535-860 of SEQ ID NO. 1) with Q589R polymorphism (SEQ ID NO. 11) were evaluated for use as C-terminal destabilizing domains. Three extended PDE5A sequences were tested that consisted of residues 535-875 of SEQ ID NO. 1 with Q589R polymorphism (SEQ ID NO. 13); residues 466-875 of SEQ ID NO. 1 with Q589R polymorphism (SEQ ID NO. 15); or residues 420-875 of SEQ ID NO. […]

[2] = test system: PDE5A-AcGFP fusions; assay: FACS analysis of N-terminal PDE5A mutants (PDE5A-AcGFP fusions), Sildenafil vs vehicle; format: cell-based, mouse; conditions: 24 hours; for Stabilization ratio: Sildenafil 20 μM vs vehicle alone; for Mean Fluorescence Intensity (MFI) Sildenafil (20 μM) / Mean Fluorescence Intensity (MFI) Vehicle control: NIH3T3; for Mean Fluorescence Intensity (MFI) Vehicle control: vehicle alone
Procedure: as §1, §2, §3, §4
as §5, with “PDE5A-AcGFP” for “AcGFP-PDE5A”, “N-terminal” for “C-terminal”, “mutants,” for “mutants”, “(20” for “(10”, “The results are presented in Table 6 where the N terminal PDE5A mutants are denoted as PDE5AN. The” for “The”, “sample.” for “sample. The results are presented in Table 2 where the C terminal PDE5A mutants are denoted as PDE5AC.”

[3] = Table 5 (extended variants), Sildenafil (10 μM) +
[4] = Table 5 (extended variants), Sildenafil (10 μM) −
[5] = Table 4 (D764 mutations), Sildenafil (10 μM) +
[6] = Table 4 (D764 mutations), Sildenafil (10 μM) −
[7] = Table 2, Sildenafil (10 μM) +, 24 hours
[8] = Table 2, Sildenafil (10 μM) −, vehicle alone, 24 hours
[9] = Table 2, fold change in GFP intensity, 24 hours

| Substance | Mean Fluorescence intensity [1, 3] | Mean Fluorescence intensity [1, 4] | Stabilization ratio ([1]; Table 5) | basal expression in the absence of ligand (in words) [1] | Stabilization ratio [2] | Mean Fluorescence Intensity (MFI) Sildenafil (20 μM) [2] | Mean Fluorescence Intensity (MFI) Vehicle control [2] | also measured |
| --- | --- | --- | --- | --- | --- | --- | --- | --- |
| PDE5AC 420-875 (Q589R): AcGFP fused to residues 420-875 of SEQ ID NO. 1 with Q589R polymorphism, SEQ ID NO. 17 | 572 | 620 | 0.9 | low basal expression |  |  |  |  |
| PDE5AC (#41) + D764G: PDE5AC (#41) engineered with D764G mutation, SEQ ID NO. 55 |  |  |  |  |  |  |  | Mean Fluorescence intensity [1, 5]: 730; Mean Fluorescence intensity [1, 6]: 709; Stabilization ratio ([1]; Table 4): 1.0 |
| PDE5AC (#8): AcGFP fused to C-terminal DD 535-860 of PDE5A (F561L, F564L, Q589R, D724N, S766F, T802P), SEQ ID NO. 34 |  |  |  |  |  |  |  | Mean Fluorescence intensity [1, 7]: 3310; Mean Fluorescence intensity [1, 8]: 1066; Stabilization ratio [1, 9]: 3.1 |
| PDE5AN (#35): N-terminal DD 535-860 of PDE5A (S560G, V585A, N587S, Q589R, K591E, S663P, F840S), SEQ ID NO. 32, fused to AcGFP |  |  |  |  | 2.50 | 3684 | 1476 |  |
| PDE5AN (#57): N-terminal DD 535-860 of PDE5A (N587S, Q589R, K608E, N661S, D764V), SEQ ID NO. 68, fused to AcGFP |  |  |  |  | 7.6 | 5851 | 770 |  |
| PDE5AC 535-860 (Q589R): AcGFP fused to PDE5A catalytic domain residues 535-860 with Q589R polymorphism, SEQ ID NO. 11 [reference compound] | 8557 | 8431 | 1.0 | high basal expression |  |  |  |  |
| PDE5AN (#19): N-terminal DD 535-860 of PDE5A (Q589R, I599V, T711A, F744L, L746S, L804P), SEQ ID NO. 31, fused to AcGFP |  |  |  |  | 2.86 | 4297 | 1502 |  |
| PDE5AC 535-875 (Q589R): AcGFP fused to residues 535-875 of SEQ ID NO. 1 with Q589R polymorphism, SEQ ID NO. 13 | 6462 | 6761 | 1.0 | high basal expression |  |  |  |  |
| PDE5AN (#30): N-terminal DD 535-860 of PDE5A (Q589R, L675P, F755L), SEQ ID NO. 69, fused to AcGFP |  |  |  |  | 4.46 | 4713 | 1056 |  |
| PDE5AC 466-875 (Q589R): AcGFP fused to residues 466-875 of SEQ ID NO. 1 with Q589R polymorphism, SEQ ID NO. 15 | 888 | 819 | 1.1 | low basal expression |  |  |  |  |
| PDE5AN (#55): N-terminal DD 535-860 of PDE5A (Q589R, I648V, M816T), SEQ ID NO. 33, fused to AcGFP |  |  |  |  | 2.87 | 3602 | 1257 |  |
| PDE5AC (#41) + D764N: PDE5AC (#41) engineered with D764N mutation, SEQ ID NO. 53 |  |  |  |  |  |  |  | Mean Fluorescence intensity [1, 5]: 1007; Mean Fluorescence intensity [1, 6]: 684; Stabilization ratio ([1]; Table 4): 1.5 |
| PDE5AC (#40): AcGFP fused to C-terminal DD 535-860 of PDE5A (Q589R, D764G), SEQ ID NO. 26 |  |  |  |  |  |  |  | Mean Fluorescence intensity [1, 7]: 5923; Mean Fluorescence intensity [1, 8]: 1255; Stabilization ratio [1, 9]: 4.7; Mean Fluorescence intensity [1, 5]: 4229; Mean Fluorescence intensity [1, 6]: 917; Stabilization ratio ([1]; Table 4): 4.6 |
